Drawing on patent US20260116920A1, “HUMAN TRANSFERRIN RECEPTOR BINDING PEPTIDE” (PEPTIDREAM INC., priority 2021, published 2026), this text covers SPR and Kd for ten compounds.

The target of this test is T1, human transferrin receptor (hTfR) (Homo sapiens, UniProt P02786).
T1 construct: made in house
As to the kind of experiment: Evaluation of molecular interaction between transferrin receptor (hTfR) and peptide using surface plasmon resonance (SPR). The class given is binding. The conditions noted are these: KD class for binding to hTfR by SPR, peptide with the linker shown in the same line, 'low signal indicates no activity'; for Kd: read-out: SPR. The protocol: Evaluation Test of Molecular Interaction Between Transferrin Receptor (hTfR) and Peptide Using Surface Plasmon Resonance (SPR)
The intermolecular interactions of various synthesized peptides with the transferrin receptor (hTfR) by surface plasmon resonance (SPR) of the peptides were tested by the methods described below. Specific test methods are shown below.
NTA sensor chip (Global Life Sciences Technologies Japan K.K.) was inserted into BiacoreT200 (Global Life Sciences Technologies Japan K.K.), then the priming operation was performed three times by using running buffer containing: 10 mM HEPES pH 8.0 (Nacalai Tesque, Inc.), 150 mM NaCl (Nacalai Tesque, Inc.), 0.05% Tween 20 (Nacalai Tesque, Inc.), 0.1% BSA (SIGMA-ALDRICH) and 1.0% DMSO (FUJIFILM Wako Pure Chemical Corporation), and equilibrated at a flow rate of 30 μL/min. 350 mM EDTA solution was reacted at a flow rate of 10 μL/min for 60 seconds, 0.5 mM […] solution (Kishida Chemical Co., Ltd.) was reacted at a flow rate of 10 μL/min for 60 seconds, and then the NTA sensor chip was washed with 3 mM EDTA solution (Nacalai Tesque, Inc.) at a flow rate of 10 μL/min for 60 seconds. After mixing 50 μL each of 60 mM EDC solution (Global Life Science Technologies Japan K.K.) and 650 mM NHS solution (Global Life Science Technologies Japan K.K.), the reaction was carried out at a flow rate of 10 μL/min for 420 seconds. 150 μL of 0.5 μM hTfR dimer solution was prepared by dilution with running buffer and reacted at a flow rate of 10 μL/min for 300 seconds to immobilize hTfR on the NTA sensor chip. For the human transferrin receptor (hTfR), recombinant hTfR described in Example 2 of WO2018/124121 was used. After immobilization, capping was performed by reacting with 1.0 M ethanolamine solution (Global Life Sciences Technologies Japan K.K.) at a flow rate of 10 μL/min for 420 seconds. Peptide lysate prepared in DMSO solution to 10 mM was diluted with running buffer to be a final concentration of 10 μM peptide lysate, then peptide solutions of 100 nM, 50 nM, 25 nM, 10 nM, and 5 nM were prepared. Using the above samples, the kinetics of the peptide against hTfR was obtained by SPR measurement.
The kinetic evaluation model was single-cycle kinetics, and curve fitting was performed using Biacore T200 Evaluation Software Version 3.0 (Global Life Science Technologies Japan K.K.). The binding of the peptide to hTfR was evaluated by performing curve fitting on the obtained sensorgram by least squares method and obtaining the KD value.
In general terms: Surface plasmon resonance follows binding to a sensor surface in real time, without labels.

Starred links: 1 amine or outer side, 2 acyl side, 3 side chain; linkers in the order of their positions; H or OH if unused. Positions of bridges follow the written chain, without caps; N, C: chain ends. Non-standard residues stand in square brackets, D forms with d. Residues, ends and D or L forms follow the SMILES beside them. *: point of attachment. E(PEG8Me) = (S)-30-amino-27-oxo-2,5,8,11,14,17,20,23-octaoxa-26-azahentriacontane-31-oic acid, COCCOCCOCCOCCOCCOCCOCCOCCNC(=O)CC[C@H](N[*:1])C(=O)[*:2]; Qpipzaa = (S)-2-amino-5-(4-(carboxymethyl)piperazin-1-yl)-5-oxopentanoic acid, O=C(CC[C@H](N[*:1])C(=O)[*:2])N1CCN(CC(=O)[*:3])CC1; F4aao = (S)-2-amino-3-(4-(carboxymethoxy)phenyl)propanoic acid, O=C([C@H](Cc1ccc(OCC(=O)[*:3])cc1)N[*:1])[*:2]; NH(1-deoxy-D-glucityl) = OC[C@@H](O)[C@@H](O)[C@H](O)[C@@H](O)CN*; Trp(1-CH2CO) = O=C([C@H](Cc1cn(CC(=O)[*:3])c2ccccc12)N[*:1])[*:2]; Trp(1-CH2COOH) = N[C@@H](Cc1cn(CC(=O)O)c2ccccc12)C(=O)O; Phe(3-COOH) = N[C@@H](Cc1cccc(C(=O)O)c1)C(=O)O; NMePhe(3-Cl) = CN[C@@H](Cc1cccc(Cl)c1)C(=O)O; 3Pal(6-NH2) = Nc1ccc(C[C@H](N)C(=O)O)cn1; PEG8 = NCCOCCOCCOCCOCCOCCOCCOCCOCCC(=O)O; Lys(N3) = [N-]=[N+]=NCCCC[C@H](N)C(=O)O; NMe3Pal = CN[C@@H](Cc1cccnc1)C(=O)O; NMeY = CN[C@@H](Cc1ccc(O)cc1)C(=O)O; 3Pal = N[C@@H](Cc1cccnc1)C(=O)O; 4Pal = N[C@@H](Cc1ccncc1)C(=O)O; PEG4 = NCCOCCOCCOCCOCCC(=O)O; Carboxymethyl = O=C(O)C*; NHCH2CH2OMe = COCCN*

T1 sequence (P02786 89-760 limits assumed): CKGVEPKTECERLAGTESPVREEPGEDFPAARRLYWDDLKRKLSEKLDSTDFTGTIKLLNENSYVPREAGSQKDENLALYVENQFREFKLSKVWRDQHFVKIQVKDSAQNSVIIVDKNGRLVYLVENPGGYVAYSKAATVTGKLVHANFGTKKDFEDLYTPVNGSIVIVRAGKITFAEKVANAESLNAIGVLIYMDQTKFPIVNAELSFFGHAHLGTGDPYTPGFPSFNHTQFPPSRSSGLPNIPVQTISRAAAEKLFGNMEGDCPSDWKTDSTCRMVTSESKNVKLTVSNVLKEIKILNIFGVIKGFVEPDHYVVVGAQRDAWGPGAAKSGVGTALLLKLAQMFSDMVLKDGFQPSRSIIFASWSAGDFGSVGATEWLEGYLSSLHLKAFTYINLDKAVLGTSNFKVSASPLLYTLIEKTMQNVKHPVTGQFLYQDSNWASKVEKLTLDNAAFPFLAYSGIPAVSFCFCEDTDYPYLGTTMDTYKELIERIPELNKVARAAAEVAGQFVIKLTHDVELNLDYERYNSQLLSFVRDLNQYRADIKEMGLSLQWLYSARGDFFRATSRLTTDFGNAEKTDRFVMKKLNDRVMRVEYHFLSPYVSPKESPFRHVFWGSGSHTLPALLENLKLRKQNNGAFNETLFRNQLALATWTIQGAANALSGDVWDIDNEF

For “894_0385 ({CH2CO}-AV[NMePhe(3-Cl)]V[Trp(1-CH2CO)]NY[F4aao]II[Qpipzaa][Qpipzaa]F[NMeY]C-NH2; thioether N-15; also: linker PEG4c, place not given here)”, the SPR result is recorded as “Low signal”.

As for “894_3181 (AVFVWNYFIIEEFYC; cyclised or stapled)”, the SPR entry was “Low signal”.

Take “894_3183 ({CH2CO}-AV[NMePhe(3-Cl)]V[Trp(1-CH2CO)]NY[F4aao]II[E(PEG8Me)][E(PEG8Me)]F[NMeY]CG[PEG8][Lys(N3)]-NH2; thioether N-15; SMILES CC[C@H](C)[C@@H]1NC(=O)[C@H](Cc2ccc(OCC(=O)O)cc2)NC(=O)[C@H](Cc2ccc(O)cc2)NC(=O)[C@H](CC(N)=O)NC(=O)[C@H](Cc2cn(CC(=O)O)c3ccccc23)NC(=O)[C@H](C(C)C)NC(=O)[C@H](Cc2cccc(Cl)c2)N(C)C(=O)[C@H](C(C)C)NC(=O)[C@H](C)NC(=O)CSC[C@@H](C(=O)NCC(=O)NCCOCCOCCOCCOCCOCCOCCOCCOCCC(=O)N[C@@H](CCCCN=[N+]=[N-])C(N)=O)NC(=O)[C@H](Cc2ccc(O)cc2)N(C)C(=O)[C@H](Cc2ccccc2)NC(=O)[C@H](CCC(=O)NCCOCCOCCOCCOCCOCCOCCOCCOC)NC(=O)[C@H](CCC(=O)NCCOCCOCCOCCOCCOCCOCCOCCOC)NC(=O)[C@H]([C@@H](C)CC)NC1=O)”: the SPR result is “Low signal”.

On to “894_3184 ({CH2CO}-AV[NMePhe(3-Cl)]V[Trp(1-CH2CO)]NY[F4aao]II[E(PEG8Me)][E(PEG8Me)][Phe(3-COOH)][NMeY]CG[Lys(N3)]-NH2; thioether N-15; SMILES CC[C@H](C)[C@@H]1NC(=O)[C@H](Cc2ccc(OCC(=O)O)cc2)NC(=O)[C@H](Cc2ccc(O)cc2)NC(=O)[C@H](CC(N)=O)NC(=O)[C@H](Cc2cn(CC(=O)O)c3ccccc23)NC(=O)[C@H](C(C)C)NC(=O)[C@H](Cc2cccc(Cl)c2)N(C)C(=O)[C@H](C(C)C)NC(=O)[C@H](C)NC(=O)CSC[C@@H](C(=O)NCC(=O)N[C@@H](CCCCN=[N+]=[N-])C(N)=O)NC(=O)[C@H](Cc2ccc(O)cc2)N(C)C(=O)[C@H](Cc2cccc(C(=O)O)c2)NC(=O)[C@H](CCC(=O)NCCOCCOCCOCCOCCOCCOCCOCCOC)NC(=O)[C@H](CCC(=O)NCCOCCOCCOCCOCCOCCOCCOCCOC)NC(=O)[C@H]([C@@H](C)CC)NC1=O)”, for which the SPR entry is “Low signal”.

As for `CC[C@H](C)[C@@H]1NC(=O)[C@H](Cc2ccc(OC)cc2)NC(=O)[C@H](Cc2ccc(O)cc2)NC(=O)[C@H](CC(N)=O)NC(=O)[C@H](Cc2c[nH]c3ccccc23)NC(=O)[C@H](C(C)C)NC(=O)[C@H](Cc2cccc(Cl)c2)N(C)C(=O)[C@H](C(C)C)NC(=O)[C@H](C)NC(=O)CSC[C@@H](C(=O)NCCOCCOCCOCCOCCC(N)=O)NC(=O)[C@H](Cc2ccc(O)cc2)N(C)C(=O)[C@H](Cc2ccc(O)cc2)NC(=O)[C@H](CCCNC(=N)N)NC(=O)[C@H](CCCCN)NC(=O)[C@H]([C@@H](C)CC)NC1=O` [894_0292], the Kd is 1 to 100 nM.

Take `CC[C@H](C)[C@@H]1NC(=O)[C@H](Cc2ccc(OC)cc2)NC(=O)[C@H](Cc2ccc(O)cc2)NC(=O)[C@H](CC(N)=O)NC(=O)[C@H](Cc2c[nH]c3ccccc23)N(C)C(=O)[C@H](C(C)C)NC(=O)[C@H](Cc2cccc(Cl)c2)N(C)C(=O)[C@H](C(C)C)NC(=O)[C@H](C)NC(=O)CSC[C@@H](C(=O)NCCOCCOCCOCCOCCC(N)=O)NC(=O)[C@H](Cc2ccc(O)cc2)N(C)C(=O)[C@H](Cc2ccc(O)cc2)NC(=O)[C@H](CCCNC(=N)N)NC(=O)[C@H](CCCNC(=N)N)NC(=O)[C@H]([C@@H](C)CC)NC1=O` [894_0293]: the Kd fell in the range of 1 to 100 nM.

As for `CC[C@H](C)[C@@H]1NC(=O)[C@H](Cc2cccnc2)NC(=O)[C@H](Cc2ccc(N)nc2)NC(=O)[C@H](CC(N)=O)NC(=O)[C@H](Cc2c[nH]c3ccccc23)NC(=O)[C@H](C(C)C)NC(=O)[C@H](Cc2cccnc2)N(C)C(=O)[C@H](C(C)C)NC(=O)[C@H](C)NC(=O)CSC[C@@H](C(=O)NCCOCCOCCOCCOCCC(N)=O)NC(=O)[C@H](Cc2ccc(O)cc2)N(C)C(=O)[C@H](Cc2ccncc2)NC(=O)[C@H](CCCNC(=N)N)NC(=O)[C@H](CCCNC(=N)N)NC(=O)[C@H]([C@@H](C)CC)NC1=O` [894_0321] ({CH2CO}-AV[NMe3Pal]VWN[3Pal(6-NH2)][3Pal]IIRR[4Pal][NMeY]C[PEG4]-NH2; thioether N-15), the Kd lay in the range of 1 to 100 nM.

For `CC[C@H](C)[C@@H]1NC(=O)[C@H](Cc2cccnc2)NC(=O)[C@H](Cc2ccc(O)cc2)NC(=O)[C@H](CC(N)=O)NC(=O)[C@H](Cc2c[nH]c3ccccc23)NC(=O)[C@H](C(C)C)NC(=O)[C@H](Cc2cccc(Cl)c2)N(C)C(=O)[C@H](C(C)C)NC(=O)[C@H](C)NC(=O)CSC[C@@H](C(=O)NCCOCCOCCOCCOCCC(N)=O)NC(=O)[C@H](Cc2ccc(O)cc2)N(C)C(=O)[C@H](Cc2ccncc2)NC(=O)[C@H](CCC(=O)NCCOC)NC(=O)[C@H](CCC(=O)NCCOC)NC(=O)[C@H]([C@@H](C)CC)NC1=O` [894_0326] ({CH2CO}-AV[NMePhe(3-Cl)]VWNY[3Pal]IIE(NHCH2CH2OMe)E(NHCH2CH2OMe)[4Pal][NMeY]C[PEG4]-NH2; thioether N-15), the Kd is 1 to 100 nM.

Turning to `CC[C@H](C)[C@@H]1NC(=O)[C@H](Cc2cccnc2)NC(=O)[C@H](Cc2ccc(O)cc2)NC(=O)[C@H](CC(N)=O)NC(=O)[C@H](Cc2c[nH]c3ccccc23)NC(=O)[C@H](C(C)C)NC(=O)[C@H](Cc2cccc(Cl)c2)N(C)C(=O)[C@H](C(C)C)NC(=O)[C@H](C)NC(=O)CSC[C@@H](C(=O)NCCOCCOCCOCCOCCC(N)=O)NC(=O)[C@H](Cc2ccc(O)cc2)N(C)C(=O)[C@H](Cc2ccncc2)NC(=O)[C@H](CCC(=O)NC[C@H](O)[C@@H](O)[C@H](O)[C@H](O)CO)NC(=O)[C@H](CCC(=O)NC[C@H](O)[C@@H](O)[C@H](O)[C@H](O)CO)NC(=O)[C@H]([C@@H](C)CC)NC1=O` [894_0328] ({CH2CO}-AV[NMePhe(3-Cl)]VWNY[3Pal]IIE(NH(1-deoxy-D-glucityl))E(NH(1-deoxy-D-glucityl))[4Pal][NMeY]C[PEG4]-NH2; thioether N-15), the Kd lay within 1 to 100 nM.

`CC[C@H](C)[C@@H]1NC(=O)[C@H](Cc2ccc(OCC(=O)O)cc2)NC(=O)[C@H](Cc2ccc(O)cc2)NC(=O)[C@H](CC(N)=O)NC(=O)[C@H](Cc2cn(CC(=O)O)c3ccccc23)NC(=O)[C@H](C(C)C)NC(=O)[C@H](Cc2cccc(Cl)c2)N(C)C(=O)[C@H](C(C)C)NC(=O)[C@H](C)NC(=O)CSC[C@@H](C(=O)NCCOCCOCCOCCOCCC(N)=O)NC(=O)[C@H](Cc2ccc(O)cc2)N(C)C(=O)[C@H](Cc2cccc(C(=O)O)c2)NC(=O)[C@H](CCC(=O)NCCOC)NC(=O)[C@H](CCC(=O)NCCOC)NC(=O)[C@H]([C@@H](C)CC)NC1=O` [894_0329] ({CH2CO}-AV[NMePhe(3-Cl)]V[Trp(1-CH2COOH)]NYY(Carboxymethyl)IIE(NHCH2CH2OMe)E(NHCH2CH2OMe)[Phe(3-COOH)][NMeY]C[PEG4]-NH2; thioether N-15): the Kd fell in the range of 1 to 100 nM.
